pIC50: −log10 of the molar value.

For the test, the target named is T1, human PDE4D catalytic domain (Homo sapiens, UniProt Q08499).
T1 construct: UniProt no; Q08499 [S380-L740]
T1 sequence (Q08499 380-740): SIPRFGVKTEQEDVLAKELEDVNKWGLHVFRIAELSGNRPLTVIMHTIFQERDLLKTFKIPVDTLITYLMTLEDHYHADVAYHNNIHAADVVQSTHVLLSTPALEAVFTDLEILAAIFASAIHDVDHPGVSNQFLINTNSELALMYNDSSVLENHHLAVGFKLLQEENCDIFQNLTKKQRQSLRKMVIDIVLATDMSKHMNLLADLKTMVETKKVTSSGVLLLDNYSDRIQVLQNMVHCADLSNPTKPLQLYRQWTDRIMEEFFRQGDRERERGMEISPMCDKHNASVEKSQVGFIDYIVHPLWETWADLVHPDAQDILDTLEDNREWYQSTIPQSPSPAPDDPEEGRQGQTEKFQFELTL
Kind of test: PDE4 Assay. The test is classed as biochemical. The settings on record: human PDE4D catalytic domain (S380-L740), TR-FRET with FAM-cAMP; expressed as a range of IC50; read-out: PDE4 Potency Range. Here is the method:
The human PDE4D catalytic domain (UniProt no. Q08499 [S380-L740]) was incubated with a mixture of non-labelled cAMP (cyclic adenosine monophosphate) and fluorescein amidite (FAM) conjugated cAMP and titrated test or reference compound. Following brief incubation the enzymatic reaction was stopped by addition of binding buffer containing nanoparticles with immobilized trivalent metal ions capable of binding 1) AMP phospho groups and 2) terbium (Tb) donor fluorophores. Subsequent excitation of the Tb donor triggers time-resolved FRET to adjacent FAM acceptor molecules resulting in light emission. In the presence of a PDE4 inhibitor, AMP generation was reduced resulting in a lower fluorescence signal. The cAMP phosphodiester is not bound by the detection system.
The results were calculated as the molar concentrations resulting in 50% inhibition of the substrate cleavage compared to controls samples, and are expressed as a range of IC50 (nM).
For `CCc1nn(CCCOC(=O)c2oncc2C)c2c1C(=O)NCC1(CCOCC1)C2` [Example 42, 3-(3-ethyl-4-oxo-spiro[6,8-dihydro-5H-pyrazolo[4,3-c]azepine-7,4′-tetrahydropyran]-1-yl)propyl 4-methylisoxazole-5-carboxylate], the pIC50 was 6.30 to 7.00.

On to `CCc1nn(CCCOC(=O)c2ccc(C)cn2)c2c1C(=O)NCC1(CCOCC1)C2` [Example 61, 3-(3-ethyl-4-oxo-spiro[6,8-dihydro-5H-pyrazolo[4,3-c]azepine-7,4′-tetrahydropyran]-1-yl)propyl 5-methylpyridine-2-carboxylate], for which the pIC50 was 6.30 to 7.00.

Take `CCc1nn(CCCOC(=O)c2noc(C)c2C)c2c1C(=O)NCC1(CCOCC1)C2` [Example 74, 3-(3-ethyl-4-oxo-spiro[6,8-dihydro-5H-pyrazolo[4,3-c]azepine-7,4′-tetrahydropyran]-1-yl)propyl 4,5-dimethylisoxazole-3-carboxylate]: the pIC50 was 6.30 to 7.00.

With `CCc1nn(CCOC(=O)C2CCN(C(C)=O)CC2)c2c1C(=O)NCC1(CCOCC1)C2` [Example 16, 2-(3-ethyl-4-oxo-spiro[6,8-dihydro-5H-pyrazolo[4,3-c]azepine-7,4′-tetrahydropyran]-1-yl)ethyl 1-acetylpiperidine-4-carboxylate], the pIC50 is less than 6.30.

Regarding `CCc1nn(CCCOC(=O)c2nonc2C)c2c1C(=O)NCC1(CCOCC1)C2` [Example 51, 3-(3-ethyl-4-oxo-spiro[6,8-dihydro-5H-pyrazolo[4,3-c]azepine-7,4′-tetrahydropyran]-1-yl)propyl 4-methyl-1,2,5-oxadiazole-3-carboxylate], the pIC50 was 6.30 to 7.00.

For `CCc1nn(CCCOC(=O)c2cc[nH]n2)c2c1C(=O)NCC1(CCOCC1)C2` [Example 18, 3-(3-ethyl-4-oxo-spiro[6,8-dihydro-5H-pyrazolo[4,3-c]azepine-7,4′-tetrahydropyran]-1-yl)propyl 1H-pyrazole-3-carboxylate], the pIC50 was 6.30 to 7.00.

Regarding `CCc1nn(CCCOC(=O)C2CCCN(C(C)=O)C2)c2c1C(=O)NCC1(CCOCC1)C2` (centres unmarked) [Example 98, 3-(3-ethyl-4-oxo-spiro[6,8-dihydro-5H-pyrazolo[4,3-c]azepine-7,4′-tetrahydropyran]-1-yl)propyl 1-acetylpiperidine-3-carboxylate], the pIC50 is less than 6.30.

Take `CCc1nn(CCCOC(=O)c2cc(C)n(C)n2)c2c1C(=O)NCC1(CCOCC1)C2` [Example 72, 3-(3-ethyl-4-oxo-spiro[6,8-dihydro-5H-pyrazolo[4,3-c]azepine-7,4′-tetrahydropyran]-1-yl)propyl 1,5-dimethylpyrazole-3-carboxylate]: the pIC50 is less than 6.30.

As to `CCc1nn(CCCOC(=O)c2snnc2C)c2c1C(=O)NCC1(CCOCC1)C2` [Example 83, 3-(3-ethyl-4-oxo-spiro[6,8-dihydro-5H-pyrazolo[4,3-c]azepine-7,4′-tetrahydropyran]-1-yl)propyl 4-methylthiadiazole-5-carboxylate], the pIC50 was less than 6.30.

As to `CCc1nn(CCCOC(=O)c2cc(O)no2)c2c1C(=O)NCC1(CCOCC1)C2` [Example 52, 3-(3-ethyl-4-oxo-spiro[6,8-dihydro-5H-pyrazolo[4,3-c]azepine-7,4′-tetrahydropyran]-1-yl)propyl 3-hydroxyisoxazole-5-carboxylate], the pIC50 is 6.30 to 7.00.

`CCc1nn(CCOC(=O)c2cc(C)n(C)n2)c2c1C(=O)NCC1(CCOCC1)C2` [Example 10, 2-(3-ethyl-4-oxo-spiro[6,8-dihydro-5H-pyrazolo[4,3-c]azepine-7,4′-tetrahydropyran]-1-yl)ethyl 1,5-dimethylpyrazole-3-carboxylate]: the pIC50 was less than 6.30.

For the compound `CCc1nn(CCCOC(=O)c2cnco2)c2c1C(=O)NCC1(CCOCC1)C2` [Example 24, 3-(3-ethyl-4-oxo-spiro[6,8-dihydro-5H-pyrazolo[4,3-c]azepine-7,4′-tetrahydropyran]-1-yl)propyl oxazole-5-carboxylate], the pIC50 is less than 6.30.

As to `CCc1nn(CCCOC(=O)c2cncs2)c2c1C(=O)NCC1(CCOCC1)C2` [Example 56, 3-(3-ethyl-4-oxo-spiro[6,8-dihydro-5H-pyrazolo[4,3-c]azepine-7,4′-tetrahydropyran]-1-yl)propyl thiazole-5-carboxylate], the pIC50 is 6.30 to 7.00.

As to `CCc1nn(CCCOC(=O)c2cncn2C)c2c1C(=O)NCC1(CCOCC1)C2` [Example 41, 3-(3-ethyl-4-oxo-spiro[6,8-dihydro-5H-pyrazolo[4,3-c]azepine-7,4′-tetrahydropyran]-1-yl)propyl 3-methylimidazole-4-carboxylate], the pIC50 was 6.30 to 7.00.

On to `CCc1nn(C[C@@H](C)COC(=O)C2CCOCC2)c2c1C(=O)NCC1(CCOCC1)C2` [Example 109, [(2R)-3-(3-ethyl-4-oxo-spiro[6,8-dihydro-5H-pyrazolo[4,3-c]azepine-7,4′-tetrahydropyran]-1-yl)-2-methyl-propyl] tetrahydropyran-4-carboxylate], for which the pIC50 is more than 7.00.

Regarding `CCc1nn(CCCOC(=O)C2CCCN(C(=O)OC)C2)c2c1C(=O)NCC1(CCOCC1)C2` (centres unmarked) [Example 104, O3-[3-(3-ethyl-4-oxo-spiro[6,8-dihydro-5H-pyrazolo[4,3-c]azepine-7,4′-tetrahydropyran]-1-yl)propyl] O1-methyl piperidine-1,3-dicarboxylate], the pIC50 was 6.30 to 7.00.

Consider `CCc1nn(CCCOC(=O)C2CCCN(C(=O)N(C)C)C2)c2c1C(=O)NCC1(CCOCC1)C2` (centres unmarked) [Example 106, 3-(3-ethyl-4-oxo-spiro[6,8-dihydro-5H-pyrazolo[4,3-c]azepine-7,4′-tetrahydropyran]-1-yl)propyl 1-(dimethylcarbamoyl)piperidine-3-carboxylate], for which the pIC50 was 6.30 to 7.00.

Take `CCc1nn(CCCOC(=O)c2cc(C)on2)c2c1C(=O)NCC1(CCOCC1)C2` [Example 44, 3-(3-ethyl-4-oxo-spiro[6,8-dihydro-5H-pyrazolo[4,3-c]azepine-7,4′-tetrahydropyran]-1-yl)propyl 5-methylisoxazole-3-carboxylate]: the pIC50 is 6.30 to 7.00.

Take `CCc1nn(CCOC(=O)Cc2cc(C)on2)c2c1C(=O)NCC1(CCOCC1)C2` [Example 11, 2-(3-ethyl-4-oxo-spiro[6,8-dihydro-5H-pyrazolo[4,3-c]azepine-7,4′-tetrahydropyran]-1-yl)ethyl 2-(5-methylisoxazol-3-yl)acetate]: the pIC50 is less than 6.30.

With `CCc1nn(CCCOC(=O)c2cn[nH]c2)c2c1C(=O)NCC1(CCOCC1)C2` [Example 20, 3-(3-ethyl-4-oxo-spiro[6,8-dihydro-5H-pyrazolo[4,3-c]azepine-7,4′-tetrahydropyran]-1-yl)propyl 1H-pyrazole-4-carboxylate], the pIC50 is 6.30 to 7.00.

Take `CCc1nn(CCCOC(=O)c2cnc(C)[nH]2)c2c1C(=O)NCC1(CCOCC1)C2` [Example 36, 3-(3-ethyl-4-oxo-spiro[6,8-dihydro-5H-pyrazolo[4,3-c]azepine-7,4′-tetrahydropyran]-1-yl)propyl 2-methyl-1H-imidazole-4-carboxylate]: the pIC50 was 6.30 to 7.00.

On to `CCc1nn(CCCOC(=O)c2ccno2)c2c1C(=O)NCC1(CCOCC1)C2` [Example 22, 3-(3-ethyl-4-oxo-spiro[6,8-dihydro-5H-pyrazolo[4,3-c]azepine-7,4′-tetrahydropyran]-1-yl)propyl isoxazole-5-carboxylate], for which the pIC50 is 6.30 to 7.00.

Regarding `CCc1nn(CCCOC(=O)c2cc(C)nn2CC)c2c1C(=O)NCC1(CCOCC1)C2` [Example 90, 3-(3-ethyl-4-oxo-spiro[6,8-dihydro-5H-pyrazolo[4,3-c]azepine-7,4′-tetrahydropyran]-1-yl)propyl 2-ethyl-5-methyl-pyrazole-3-carboxylate], the pIC50 was 6.30 to 7.00.

With `CCc1nn(CCCOC(=O)c2nc(C)c(C)s2)c2c1C(=O)NCC1(CCOCC1)C2` [Example 94, 3-(3-ethyl-4-oxo-spiro[6,8-dihydro-5H-pyrazolo[4,3-c]azepine-7,4′-tetrahydropyran]-1-yl)propyl 4,5-dimethylthiazole-2-carboxylate], the pIC50 is 6.30 to 7.00.

`CCc1nn(CCCOC(=O)c2cnc(C)o2)c2c1C(=O)NCC1(CCOCC1)C2` [Example 48, 3-(3-ethyl-4-oxo-spiro[6,8-dihydro-5H-pyrazolo[4,3-c]azepine-7,4′-tetrahydropyran]-1-yl)propyl 2-methyloxazole-5-carboxylate]: the pIC50 is 6.30 to 7.00.

As to `CCc1nn(CCOC(=O)c2cscn2)c2c1C(=O)NCC1(CCOCC1)C2` [Example 7, 2-(3-ethyl-4-oxo-spiro[6,8-dihydro-5H-pyrazolo[4,3-c]azepine-7,4′-tetrahydropyran]-1-yl)ethyl thiazole-4-carboxylate], the pIC50 is less than 6.30.

In the case of `CCc1nn(CCCOC(=O)c2cccnn2)c2c1C(=O)NCC1(CCOCC1)C2` [Example 29, 3-(3-ethyl-4-oxo-spiro[6,8-dihydro-5H-pyrazolo[4,3-c]azepine-7,4′-tetrahydropyran]-1-yl)propyl pyridazine-3-carboxylate], the pIC50 was less than 6.30.

Take `CCc1nn(CCCOC(=O)c2scnc2C)c2c1C(=O)NCC1(CCOCC1)C2` [Example 81, 3-(3-ethyl-4-oxo-spiro[6,8-dihydro-5H-pyrazolo[4,3-c]azepine-7,4′-tetrahydropyran]-1-yl)propyl 4-methylthiazole-5-carboxylate]: the pIC50 was 6.30 to 7.00.

As to `CCc1nn(CCCOC(=O)c2ccc(C)nc2C)c2c1C(=O)NCC1(CCOCC1)C2` [Example 87, 3-(3-ethyl-4-oxo-spiro[6,8-dihydro-5H-pyrazolo[4,3-c]azepine-7,4′-tetrahydropyran]-1-yl)propyl 2,6-dimethylpyridine-3-carboxylate], the pIC50 was more than 7.00.

Source of the values: patent US11065257B2, “Substituted pyrazoloazepin-4-ones and their use as phosphodiesterase inhibitors” (LEO Pharma A/S, priority 2016, dated 2021).
